Key:
[1] = tested on: Cyclin G expression in pancreatic cancer cell line PL8; assay: RT-PCR analysis of Cyclin G expression after 5Aza-dC treatment; assay type: cell-based, human; conditions: methylated cell line PL8, 5Aza-dC at a final concentration of 1 μM for 5 days, coamplified with GAPDH
Procedure: (§1) Five pancreatic cancer cell lines (PL3, PL8, CAPAN2, Panc1, and MiaPaca2) and four normal pancreata were used for RT-PCR analysis. The cell lines were treated with demethylating agent 5Aza-dC (Sigma Chemical Co.) at a final concentration of 1 μM for 5 days. Total RNA was prepared using TRIzol (Life Technologies, Inc.), reverse-transcribed and amplified. As a control for cDNA integrity, glyceraldehyde-3-phosphate dehydrogenase gene (GAPDH) was also amplified. Primer sequences for RT-PCR are listed in Table 3 and are available at http://pathology2.jhu.edu/pancreas/prim0425.htm, which website is incorporated herein by reference.
(§2) Partial methylation (˜50%) of the 5′ CpG island of Cyclin G in PL8 (FIG. 4C) was associated with decreased expression of Cyclin G by RT-PCR. The 5′ CpG island of Cyclin G was not methylated in a panel of normal pancreata. Cyclin G was expressed in 4 normal pancreata by RT-PCFR. […] Thus, hypermethylation of the 5′ CpG islands of Cyclin G and ppENK is coincides with decreased expression in pancreatic cancers.

[2] = tested on: ppENK expression in pancreatic cancer cell lines PL3, CAPAN2, MiaPaca2 and Panc1; assay: RT-PCR analysis of ppENK expression after 5Aza-dC treatment; assay type: cell-based, human; conditions: 4 methylated cell lines (PL3, CAPAN2, MiaPaca2, Panc1), 5Aza-dC at a final concentration of 1 μM for 5 days, coamplified with GAPDH
Procedure: as §1, §2

[3] = listed as 5-aza-2′-deoxycytidine

In the case of `Nc1ncn([C@H]2C[C@H](O)[C@@H](CO)O2)c(=O)n1` [5Aza-dC, 5-aza-2′-deoxycytidine], the “Cyclin G expression by RT-PCR” value [1] is reported as “restored the expression of Cyclin G”, the “Cyclin G expression by RT-PCR” value [1, 3] is reported as “reversible” and the “Cyclin G expression by RT-PCR” value ([1]; listed as 5 Aza-dC) is reported as “increased Cyclin G expression”. For the same compound, the “ppENK expression by RT-PCR” value [2] was “restored ppENK expression in all 4 cell lines”, the “ppENK expression by RT-PCR” value [2, 3] was “reversible” and the “ppENK expression by RT-PCR” value ([2]; listed as 5 Aza-dC) was “restored the ppENK expression”.

— patent US7153653B2, “Differentially methylated sequences in pancreatic cancer” (The Johns Hopkins University School of Medicine, priority 2001, dated 2006)
